Test: solubility
Type: physicochemical
Conditions: Example 37 complexes

water solubility: good water solubility
Substance: D,L-dibenzenesulfonate-(1-benzylethylenediamine)-platinum II [dibenzenesulfonate complexes]

Source: patent US4704464A, “Tumor retarding (1-benzyl-ethylenediamine)-platin (II)-complexes” (ASTA-Werke Aktiengesellschaft Chemische Fabrik, priority 1985, dated 1987)
